{"source": "patent EP1058559B1", "about": "“COMBINATION OF A SELECTIVE NMDA NR2B ANTAGONIST AND A COX-2 INHIBITOR” (MERCK SHARP & DOHME LTD., priority 1998, dated 1999)", "key": {"motor co-ordination": {"tested_on": "motor co-ordination", "assay": "accelerating rotarod (motor co-ordination) with observed behaviour", "assay_type": "in vivo, male Sprague Dawley rats", "conditions": "for ID50 Motor Impairment Rat Rotarod: male, Sprague Dawley, in vivo, ip, 1 h", "protocol": "(§1) The present Example examined whether NMDA NR2B receptor antagonists have an improved therapeutic window over unselective NNIDA/glycine antagonists and other ion channel blockers including lamotrigine and gabapentin, by comparing their anti-algesic effects with their liability to induce motor impairment in rats. Anti-algesic activity was assessed using an assay of neuropathic pain in rats (sciatic nerve ligation) and in a carrageenan-induced hyperalgesia assay. Motor impairment was measured using an accelerating rotarod.\n(§2) For sciatic nerve ligation, male Sprague Dawley rats (180-220g) were anaesthetised with isofluorane, the left sciatic nerve exposed and 4 chromic catgut (4.0) ligatures were tied loosely around the nerve (spaced 1-2 mm apart) immediately proximal to the point of trifurcation. In shamoperated animals, the same dissection was performed but without ligation. Responses to mechanical pressure were assessed 7 days after ligation using a modified Randall-Selitto algesiometer in which constant force of […] was applied to the hind paw and the latency to struggle was recorded as the reaction time. Mechanical allodynia was defined as the difference in reaction time for sham and ligature rats. Reaction times for drug treated rats were expressed as a percentage of this response. Compounds were administered 1 h before the test. In the carrageenan-induced hyperalgesia assay, male Sprague Dawley rats (100-120 g) received an intraplantar injection of carrageenan (4.5 mg) and mechanical thresholds were determined 3 h later using a modified Ugo Basile Algesiometer. Control rats received saline (0.15 ml i.pl.). Hyperalgesia was defined as the difference in vocalisation threshold for saline- and carrageenan-injected rats. Paw pressure scores for drug-treated rats were expressed as a percentage of this response. Compounds were administered 2 h after carrageenan. To determine the effects of the compounds on motor co-ordination, male Sprague Dawley rats (160-180 g) were first trained to remain for 120 s on the rotarod apparatus revolving at 12 r.p.m. on the morning before the test. Animals then received drug treatments and 1 h later were placed on an accelerating rotarod (increasing from 4 - 40 r.p.m. during a 5 min period) and the time the rats were able to remain on the rotarod recorded. Lamotrigine, gabapentin and (±)-CP-101,606 were suspended in 0.5% methocel and administered orally (1 ml/kg). Ifenprodil, L-701,324, L-687,414 and (±)-Ro25-6981 were dissolved or suspended in 0.5% methocel and administered intraperitoneally (1 ml/kg). MK-801 was dissolved in distilled water and given i.p. (1 ml/kg). Doses of compounds refer to the free base.\nTo determine the effects of morphine and (±)-Ro25-6981 on motor co-ordination, male Sprague Dawley rats (160-180 g) were first trained to remain for 120 s on the rotarod apparatus revolving at. 12 r.p.m. on the morning before the test. Animals then received drug treatments and 1 h later were placed on an accelerating rotarod (increasing from 4 - 40 r.p.m. during a 5 min period) and the time the rats were able to remain on the rotarod recorded."}, "[1]": {"tested_on": "mechanical allodynia induced by sciatic nerve ligation", "assay": "sciatic nerve ligation assay of neuropathic pain (mechanical allodynia, modified Randall-Selitto algesiometer)", "assay_type": "in vivo, male Sprague Dawley rats", "conditions": "result in words; given 1 h before the test", "protocol": "as §1, §2"}, "[2]": {"tested_on": "mechanical hyperalgesia induced by carrageenan", "assay": "carrageenan-induced hyperalgesia assay (mechanical thresholds, modified Ugo Basile Algesiometer)", "assay_type": "in vivo, male Sprague Dawley rats", "conditions": "for inhibition of hyperalgesia: alone, Figure 2", "protocol": "as §1\nFor sciatic nerve ligation, male Sprague Dawley rats (180-220g) were anaesthetised with isofluorane, the left sciatic nerve exposed and 4 chromic catgut (4.0) ligatures were tied loosely around the nerve (spaced 1-2 mm apart) immediately proximal to the point of trifurcation. In shamoperated animals, the same dissection was performed but without ligation. Responses to mechanical pressure were assessed 7 days after ligation using a modified Randall-Selitto algesiometer in which constant force of […] was applied to the hind paw and the latency to struggle was recorded as the reaction time. […] Reaction times for drug treated rats were expressed as a percentage of this response. […] In the carrageenan-induced hyperalgesia assay, male Sprague Dawley rats (100-120 g) received an intraplantar injection of carrageenan (4.5 mg) and mechanical thresholds were determined 3 h later using a modified Ugo Basile Algesiometer. […] Paw pressure scores for drug-treated rats were expressed as a percentage of this response. […] Animals then received drug treatments and 1 h later were placed on an accelerating rotarod (increasing from 4 - 40 r.p.m. during a 5 min period) and the time the rats were able to remain on the rotarod recorded. […]\nMate Sprague Dawley rats (100-120 g) received an intraplantar injection of carrageenan (4.5 mg) and mechanical thresholds were determined 3 h later using a modified Ugo Basile Algesiometer. […] Paw pressure scores for drug-treated rats were expressed as a percentage of this response. […]"}, "[3]": {"conditions": "at doses showing no behavioural abnormality; cited from earlier work"}}, "data": [{"compound": "C[C@@H](CN1CCC(Cc2ccccc2)CC1)[C@@H](O)c1ccc(O)cc1", "note": "(racemic) [(±)-Ro25-6981]", "values": [{"measurement": "ID50 Motor Impairment Rat Rotarod", "setting": "motor co-ordination", "result": "≥100", "unit": "mg/kg"}, {"measurement": "reversal of mechanical allodynia induced by sciatic nerve ligation", "setting": "[1]", "result": "dose-dependently reversed mechanical allodynia"}, {"measurement": "reversal of mechanical hyperalgesia induced by carrageenan", "setting": "[2]; 10 and 30 mg/kg i.p., Figure 1", "result": "dose-dependent reversal of mechanical hyperalgesia"}]}, {"compound": "NCC1(CC(=O)O)CCCCC1", "note": "[Gabapentin]", "values": [{"measurement": "motor impairments observed", "setting": "motor co-ordination; doses of 30-300 mg/kg", "result": "motor impairments (ataxia)"}, {"measurement": "reversal of mechanical allodynia induced by sciatic nerve ligation", "setting": "[1]", "result": "reversed mchanical allodynia"}]}, {"compound": "CC(C(O)c1ccc(O)cc1)N1CCC(Cc2ccccc2)CC1", "note": "(centres unmarked) [Ifenprodil]", "values": [{"measurement": "ID50 Motor Impairment Rat Rotarod", "setting": "motor co-ordination", "result": "≥50", "unit": "mg/kg"}, {"measurement": "reversal of mechanical allodynia induced by sciatic nerve ligation", "setting": "[1]", "result": "reversed mchanical allodynia"}]}, {"compound": "C[C@@H]1CN(O)C(=O)[C@@H]1N", "note": "[L-687,414]", "values": [{"measurement": "reversal of mechanical allodynia induced by sciatic nerve ligation", "setting": "[1]", "result": "dose-dependently reversed mechanical allodynia"}]}, {"compound": "O=c1[nH]c2cc(Cl)ccc2c(O)c1-c1cccc(Oc2ccccc2)c1", "note": "[L-701,324]", "values": [{"measurement": "behavioural effects observed", "setting": "motor co-ordination; 10 and 30 mg/kg i.p.", "result": "ataxia"}, {"measurement": "reversal of mechanical allodynia induced by sciatic nerve ligation", "setting": "[1]", "result": "dose-dependently reversed mechanical allodynia"}]}, {"compound": "CS(=O)(=O)Nc1cc2c(cc1Sc1ccc(F)cc1F)C(=O)CC2", "note": "[L-745,337]", "values": [{"measurement": "inhibition of hyperalgesia", "setting": "[2]; 3 mg/kg p.o.", "result": 75, "unit": "%"}, {"measurement": "inhibition of hyperalgesia", "setting": "[2]; 0.3-3 mg/kg p.o., result in words", "result": "dose-dependent inhibition of hyperalgesia"}]}, {"compound": "Nc1nnc(-c2cccc(Cl)c2Cl)c(N)n1", "note": "[Lamotrigine]", "values": [{"measurement": "reversal of mechanical allodynia induced by sciatic nerve ligation", "setting": "[1]", "result": "reversed mchanical allodynia"}]}, {"compound": "C[C@]12N[C@H](Cc3ccccc31)c1ccccc12", "note": "[MK-801]", "values": [{"measurement": "behavioural effects observed", "setting": "motor co-ordination; 0.3 and 1 mg/kg doses (i.p.)", "result": "Body rolling, and head weaving"}, {"measurement": "reversal of mechanical allodynia induced by sciatic nerve ligation", "setting": "[1]", "result": "dose-dependently reversed mechanical allodynia"}]}, {"compound": "(±)-CP-101,606", "values": [{"measurement": "analgesic activity", "setting": "[3]", "result": "Potent analgesic activity"}, {"measurement": "reversal of mechanical allodynia induced by sciatic nerve ligation", "setting": "[1]", "result": "dose-dependently reversed mechanical allodynia"}]}]}
